The source of these data is the RepoRT retention time repository (doi:10.1016/j.foodchem.2021.129757).

Common to all, as to settings: stereoisomer not certain
A short description of series [1]: RP, Waters ACQUITY UPLC HSS T3, 100 × 2.1 mm, 50 °C; A: water + 0.1% formic acid, pH 3; B: 30% methanol + 70% acetonitrile + 0.1% formic acid, pH 3; gradient (min/%B) 0/5 1/8 2/15 3/40 4/70 4.5/100 5/100 6.4/100 6.6/5 6.8/5 7/5.
The nature of series [2]: RP, Agilent ZORBAX Eclipse XDB-C18, 100 × 2.1 mm, 1.8 µm, 50 °C, 0.4 mL/min, estimated dead time 0.55 min; A: water + 0.1% formic acid, pH 3; B: methanol + 0.1% formic acid, pH 3; gradient (min/%B) 0/2 10/100 14.5/100 14.51/2 16.5/2.
Series [3] in a line: RP, Waters ACQUITY UPLC HSS T3, 100 × 2.1 mm, 1.8 µm, 30 °C, 0.4 mL/min, estimated dead time 0.55 min; A: water + 0.1% formic acid, pH 3; B: acetonitrile + 0.1% formic acid, pH 3; gradient (min/%B) 0/0 2/0 15/100 22/100 22.1/0 26/0.
Series [4] is described as follows: RP, Waters ACQUITY UPLC BEH C18, 100 × 2.1 mm, 1.7 µm, 65 °C, 0.4 mL/min, estimated dead time 0.55 min; A: water + 0.1% formic acid, pH 3; B: 80% acetonitrile + 20% acetone + 0.1% formic acid, pH 3; gradient (min/%B) 0/0 5/100 5.5/0 6/0.
Series [5] in a line: RP, Phenomenex Synergi Hydro-RP, 250 × 2 mm, 4 µm, 25 °C, 0.2 mL/min, estimated dead time 2.5 min; A: water + 0.1% formic acid, pH 3; B: acetonitrile + 0.1% formic acid, pH 3; gradient (min/%B) 0/0.5 7/0.5 12/12.5 25/16.3 47/35 48/65 50/65 50.1/0.5.
Series [6] can be described thus: RP, Agilent ZORBAX RRHD Eclipse Plus C18, 50 × 2.1 mm, 1.8 µm, 30 °C, 0.4 mL/min, estimated dead time 0.28 min; A: water + 0.1% formic acid, pH 3; B: acetonitrile + 0.1% formic acid, pH 3; gradient (min/%B) 0/1 5/10 8/25 9.1/99 10/99 12/1.
Series [7] can be described thus: RP, Agilent ZORBAX RRHD Eclipse Plus C18, 50 × 2.1 mm, 1.8 µm, 30 °C, 0.4 mL/min, estimated dead time 0.28 min; A: water + 0.1% formic acid, pH 3; B: acetonitrile + 0.1% formic acid, pH 3; gradient (min/%B) 0/1 5/10 8/25 9.1/99 10/99 12/99.

Structures are written as SMILES. Structures can show the parent of a compound that is named as a salt.

`CC(C)(CO)C(O)C(=O)NCCC(=O)O` (racemic) [DL-Pantothenic acid]: the LC retention time in series [1] was 2 min; in series [2], 2.42 min. For `O=C(O)C1CCCCN1` (single isomer, unassigned; (+)) [(+)-Pipecolinic acid], the LC retention time in series [1] amounted to 0.617 min. Consider `Cn1c(=O)c2[nH]c(=O)[nH]c2n(C)c1=O` [1,3-Dimethyluric acid], for which the LC retention time was 2.01 min in series [1], 7.03 min in series [3] and 1.45 min in series [4]. With `Cn1c(=O)[nH]c2[nH]c(=O)[nH]c2c1=O` [1-Methyluric acid], the LC retention time in series [1] is 1.27 min; in series [4], 1.29 min.

As for `O=Cc1ccccc1O` [2-Hydroxybenzaldehyde], the LC retention time in series [1] was found to be 3.72 min.

For the compound `O=C(O)Cc1ccccc1O` [2-Hydroxyphenylacetic acid], the LC retention time in series [1] was 3.4 min; in series [3], 9.13 min; in series [2] it was 3.82 min. In the case of `COc1ccccc1C=CC(=O)O` [2-Methoxycinnamic acid], the LC retention time in series [5] is 50 min. On to `Cc1ccccc1C(=O)NCC(=O)O` [2-Methylhippuric acid], for which the LC retention time in series [1] is 3.4 min; in series [4], 1.96 min.

For the compound `Cn1c(=O)[nH]c(=O)c2c1[nH]c(=O)n2C` [3,7-Dimethyluric acid], the LC retention time in series [1] stood at 1.54 min. Still for that read-out and setting: next, `O=C(O)CCc1ccc(O)cc1O` [3-(2,4-dihydroxyphenyl)propionic acid]: 3.02 min; `O=C(O)CCc1cc(O)cc(O)c1` [3-(3,5-Dihydroxyphenyl)propanoic acid]: 2.66 min. As for `O=C(OC1OC(C(=O)O)C(O)C(O)C1O)c1c[nH]c2ccccc12` (stereo not drawn) [3-Indole carboxylic acid glucuronide], the LC retention time in series [1] is 3.36 min; in series [4], 1.89 min. For the compound `O=C(O)Cc1c[nH]c2ccccc12` [3-Indoleacetic acid], the LC retention time was 3.62 min in series [1], 5 min in series [2] and 2.35 min in series [4]. On to `O=C(O)C(O)Cc1c[nH]c2ccccc12` (stereo not drawn) [3-Indolelactic acid], for which the results for the LC retention time in series [1] and in series [4] were 3.53 min and 2.14 min, respectively. The matching figures for `O=S(=O)(O)Oc1c[nH]c2ccccc12` [3-Indoxyl sulfate]: 2.67 min and 1.68 min. On the same counts, the results for `Cn1c(=O)[nH]c(=O)c2[nH]cnc21` [3-Methylxanthine] are 1.45 min and 1.3 min. Regarding `O=C(O)C(O)Cc1ccccc1` (stereo not drawn) [3-Phenyllactic acid], the LC retention time in series [5] was 27.2 min. Regarding `COc1cccc(C=CC(=O)O)c1` [3-methoxycinnamic acid], the LC retention time in series [5] was 49.1 min. The same measure, in the same setting: next, `COc1ccc(C=CC(=O)O)cc1` [4-methoxycinnamic acid]: 48 min. For `O=C(O)Cc1c[nH]c2ccc(O)cc12` [5-Hydroxyindole-3-acetic acid], the LC retention time is 2.86 min in series [1] and 1.61 min in series [4]. For the compound `Cn1cnc2[nH]c(=O)[nH]c(=O)c21` [7-Methylxanthine], in series [1], the LC retention time is 1.25 min. The same measure, in the same setting: in the case of `CC(=O)Nc1c(N)[nH]c(=O)n(C)c1=O` [AAMU] it was 0.681 min; in that of `C=CCS(=O)CC(N)C(=O)O` (stereo not drawn) [Alliin], 0.638 min; in that of `O=C1OC(C(O)CO)C(O)=C1O` (stereo not drawn) [Ascorbic acid], 0.601 min. Consider `O=C(O)CCCCCCCC(=O)O` [Azelaic acid], for which the LC retention time was 3.63 min in series [1], 5.74 min in series [2] and 2.33 min in series [4]. For the compound `O=C(O)C1OC(Oc2ccccc2O)C(O)C(O)C1O` (stereo not drawn) [Catechol-O-1-glucuronide], the LC retention time in series [1] is 2.65 min; in series [6], 4.38 min; in series [7] it was 3.09 min. Regarding `CC(O)C1NC(=O)C2CCCN2C1=O` (stereo not drawn) [Cyclo(Pro-Thr)], the LC retention time was 1.54 min in series [1] and 1.37 min in series [4]. In the case of `CC(C)C1NC(=O)C2CCCN2C1=O` (stereo not drawn) [Cyclo(Pro-Val)], the LC retention time in series [1] was 3.1 min; in series [3], 8.07 min; in series [4] it was 1.88 min.

As to `COc1ccc(-c2cc(=O)c3c(O)cc(OC4OC(C(=O)O)C(O)C(O)C4O)cc3o2)cc1O` (stereo not drawn) [Diosmetin 7-glucuronide], in series [1], the LC retention time was determined as 3.6 min. As for `NCCc1ccc(OS(=O)(=O)O)c(O)c1` [Dopamine 4-O-sulfate], the LC retention time in series [1] was 0.606 min; in series [4], 1.3 min. Turning to `NCCc1ccc(O)c(O)c1` [Dopamine], the results for the LC retention time in series [1] and in series [3] were 0.706 min and 1.3 min, respectively. For the compound `CS(=O)CCCC(=NOS(=O)(=O)O)SC1OC(CO)C(O)C(O)C1O` (stereo not drawn) [Glucoiberin], the LC retention time in series [5] is 4.44 min.

As for `C=CCCC(=NOS(=O)(=O)O)SC1OC(CO)C(O)C(O)C1O` (stereo not drawn) [Gluconapin], the LC retention time in series [5] was 12.7 min. As to `O=S(=O)(O)ON=C(CCc1ccccc1)SC1OC(CO)C(O)C(O)C1O` (stereo not drawn) [Gluconasturtiin], the LC retention time in series [5] is 19.3 min. Same read-out and setting: in the case of `CS(=O)CCCCC(=NOS(=O)(=O)O)SC1OC(CO)C(O)C(O)C1O` (stereo not drawn) [Glucoraphanin] it was 6.23 min. For the compound `O=C(O)C1OC(Oc2ccc(O)cc2)C(O)C(O)C1O` (stereo not drawn) [Hydroquinone glucuronide], in series [1], the LC retention time was 0.909 min. Turning to `O=C(O)C1CC(O)CN1` (stereo not drawn) [Hydroxyproline], the LC retention time in series [1] was found to be 0.466 min. Turning to `CS(=O)CCCN=C=S` (stereo not drawn) [Iberin], the LC retention time in series [1] came to 3.25 min. Same read-out and setting: next, `O=C(Cc1c[nH]c2ccccc12)OC1OC(C(=O)O)C(O)C(O)C1O` (stereo not drawn) [Indole-3-acetic acid glucuronide]: 3.46 min. For the compound `O=C(O)CNC(=O)C=Cc1c[nH]c2ccccc12` [Indole-3-acryloylglycine], the LC retention time is 3.56 min in series [1] and 2.13 min in series [4]. For the compound `OCC1OC(Oc2c[nH]c3ccccc23)C(O)C(O)C1O` (stereo not drawn) [Indoxyl beta-d-glucoside], the LC retention time in series [1] is 2.92 min. Take `O=C(O)C1OC(Oc2c[nH]c3ccccc23)C(O)C(O)C1O` (stereo not drawn) [Indoxyl beta-d-glucuronide]: the LC retention time is 2.94 min in series [1] and 1.73 min in series [4].

Regarding `c1coc(CNc2ncnc3nc[nH]c23)c1` [Kinetin], the LC retention time in series [1] is 3.03 min; in series [4], 1.7 min.

Consider `NC(=O)NCCC[C@H](N)C(=O)O` [L-Citrulline], for which the LC retention time in series [1] worked out at 0.483 min. On to `CC(=O)CCC(=O)O` [Levulinic acid], for which the LC retention time in series [1] is 1.46 min; in series [4], 1.4 min. In the case of `CN(C)CC(=O)O` [N,N-Dimethylglycine], the LC retention time in series [1] is 0.49 min. Turning to `Cn1c(=O)[nH]c2ncn(C)c2c1=O` [Paraxanthine], the LC retention time in series [1] was 2.56 min; in series [3], 7.53 min; in series [2], 2.93 min; in series [4], 1.48 min. As for `Cc1ncc(CO)c(C=O)c1O` [Pyridoxal], the figures for the LC retention time in series [1], in series [2] and in series [4] were 2.61 min, 1.35 min and 0.821 min, respectively. Regarding `O=C(O)c1ccc[nH]1` [Pyrrole-2-carboxylic acid], the LC retention time in series [1] was 2.61 min; in series [4] it was 1.68 min. In the case of `O=C(O)c1cc(=O)c2cccc(O)c2[nH]1` [Xanthurenic acid], the LC retention time in series [1] came to 2.57 min.

On to `Cc1cccc(OS(=O)(=O)O)c1` [m-Cresol sulfate], for which the LC retention time is 3.44 min in series [1] and 2 min in series [4]. The matching figures for `Cc1ccccc1OS(=O)(=O)O` [o-Cresol sulfate]: 3.38 min and 1.93 min. The matching figures for `Cc1ccc(OC2OC(C(=O)O)C(O)C(O)C2O)cc1` (stereo not drawn) [p-Cresol glucuronide]: 3.44 min and 2.01 min. On the same counts, the results for `Cc1ccc(OS(=O)(=O)O)cc1` [p-Cresol sulfate] are 3.38 min and 1.99 min. `O=C(O)C(O)Cc1ccc(O)cc1` (stereo not drawn) [p-Hydroxyphenyllactic acid]: the results for the LC retention time in series [1] and in series [2] were 2.66 min and 2.73 min, respectively.
